For two compounds, ring closure, yield of all isomers results are on record in patent publication US11230550.

Molecules are shown by their SMILES. Like-named read-outs stand apart in the source and are kept apart here.

For this series the following is noted: rcm bond, Grubbs I, CH2Cl2, 40.0 °C.

Compound `COc1ccc2c(c1)COCC=CCCCCN(C[C@@H](O)[C@H](Cc1ccccc1)NC(=O)OC(C)(C)C)S2(=O)=O` returned a ring closure, yield of all isomers (from C=CCCCCN(C[C@@H](O)[C@H](Cc1ccccc1)NC(=O)OC(C)(C)C)S(=O)(=O)c1ccc(OC)cc1COCC=C, 2.65 mM, 4.0 h) of 93%. In the case of `CC(C)(C)OC(=O)N[C@@H](Cc1ccccc1)[C@H](O)CN1CCCCC=CCOCc2cc([N+](=O)[O-])ccc2S1(=O)=O`, the ring closure, yield of all isomers (from C=CCCCCN(C[C@@H](O)[C@H](Cc1ccccc1)NC(=O)OC(C)(C)C)S(=O)(=O)c1ccc([N+](=O)[O-])cc1COCC=C, 1.625 mM, 3.0 h) turned out to be 92%.
